Source: paper PMC11377810, “A Gaussia luciferase reporter assay for the evaluation of coronavirus Nsp5/3CLpro activity” (Scientific Reports, 2024)
pIC50: −log10 of the molar value.

Experiments:
SARS-CoV-2 Nsp5 [1] = biological target: T1, SARS-CoV-2 Nsp5 (Severe acute respiratory syndrome coronavirus 2, UniProt P0DTD1)
COVID-19 = conditions: cited from earlier work
SARS-CoV-2 Nsp5 [2] = biological target: T1, SARS-CoV-2 Nsp5; assay: cell-based
HEK293T reporter cells [3] = assay: MTT assay of cell metabolic activity of reporter cells; conditions: at the active concentrations ≥ 20 µM, Fig. 4c
[4] = in vivo, cited from earlier work
HEK293T reporter cells [5] = tested on: HEK293T reporter cells

Cc1cccc(C)c1OCC(=O)N[C@@H](Cc1ccccc1)[C@@H](O)C[C@H](Cc1ccccc1)NC(=O)[C@H](C(C)C)N1CCCNC1=O [Lopinavir]
concentrations that significantly decreased the Gaussia luciferase signal (lowest significantly active dose) (SARS-CoV-2 Nsp5 [1]): ≥ 20 µM
effective and non-cytotoxic concentration range (SARS-CoV-2 Nsp5 [1]): 8 to 64 µM
benefit in the treatment of COVID-19 (COVID-19; COVID-19 patients, clinical trials): little to no benefit
benefit in COVID-19 patients (COVID-19; multiple clinical trials): no significant benefit
pIC50 (SARS-CoV-2 Nsp5 [2]; IC50, inhibition of Nsp5 reporter (Gaussia luciferase) activity): 4.68
pIC50 (SARS-CoV-2 Nsp5 [2]; IC50, inhibition of Nsp5 reporter activity, re-evaluated at lower nontoxic concentrations, additional concentrations, 8–64 µM range (Fig. 4e)): 4.92
cytotoxicity (MTT) (HEK293T reporter cells [3]): cytotoxic at all of the tested active concentrations

COc1cccc2[nH]c(C(=O)N[C@@H](CC(C)C)C(=O)N[C@@H](C[C@@H]3CCNC3=O)C(=O)COP(=O)(O)O)cc12 [Lufotrelvir]
oral bioavailability ([4]; po): low
systemic clearance [4]: fast

COc1cccc2[nH]c(C(=O)N[C@@H](CC(C)C)C(=O)N[C@@H](C[C@@H]3CCNC3=O)C(=O)CO)cc12 [PF-00835231]
non-cytotoxic concentrations (HEK293T reporter cells [5]): ≤ 50 µM
